Measured values as given in patent publication US9115065B2 (priority 2004, dated 2015).
Entries after “also recorded” stand apart in the source; their conditions may differ. Where two headings read alike, the source gives them in different places.

Legend:
[1] = system: VSV; assay: microbe, parasite or virus in culture; format: cell-based; conditions: Vesicular stomatitis virus, HEK-293T, read-out: VSV (μM) (negative control)
[2] = system: Tacaribe; assay: microbe, parasite or virus in culture; format: cell-based; conditions: Mammarenavirus tacaribeense, HEK-293T, read-out: Antiviral activity vs. pseudotyped viruses: Tacaribe
[3] = system: Machupo; assay: microbe, parasite or virus in culture; format: cell-based; conditions: Mammarenavirus machupoense, HEK-293T, read-out: Antiviral activity vs. pseudotyped viruses: Machupo
[4] = system: Guanarito; assay: microbe, parasite or virus in culture; format: cell-based; conditions: Mammarenavirus guanaritoense, HEK-293T, read-out: Antiviral activity vs. pseudotyped viruses: Guanarito
[5] = system: Junín; assay: microbe, parasite or virus in culture; format: cell-based, Junin virus; conditions: Mammarenavirus juninense, HEK-293T, read-out: Antiviral activity vs. pseudotyped viruses: Junín
[6] = system: Tacaribe virus; assay: microbe, parasite or virus in culture; format: cell-based
[7] = system: Tacaribe virus; format: cell-based; conditions: read-out: Tacaribe (Plaque reduction) EC50
[8] = system: S. typhimurium tester strains TA7007 and TA7006 and TA98
[9] = system: drug resistant Tacaribe mutants; format: cell-based, Tacaribe virus
[10] = system: Vero cells
[11] = system: Tacaribe virus; parameters: species or system BALB/c mice; conditions: mouse, in vivo
[12] = system: Machupo; format: cell-based, Machupo virus; conditions: read-out: Machupo (Plaque reduction) EC50
[13] = system: Guanarito; format: cell-based, Guanarito virus; conditions: read-out: Guanarito (Plaque reduction) EC50
[14] = in vivo
[15] = system: Junín; format: cell-based, Junin virus; conditions: read-out: Junin (Plaque reduction) EC50
[16] = system: icd-GPC; format: binding, Junin virus
[17] = in vivo; remark: listed apart in the source
[18] = mouse, in vivo, ip, 100 mg/kg/day
[19] = target: JUNV GPC (Junin mammarenavirus, UniProt P26313); assay: cell-based; parameters: species or system Junin virus
Sequence of JUNV GPC (P26313 2-58 limits assumed): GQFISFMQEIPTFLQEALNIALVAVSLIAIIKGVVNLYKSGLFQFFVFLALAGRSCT
Sequence of JUNV GPC (P26313 59-251 partner limits assumed): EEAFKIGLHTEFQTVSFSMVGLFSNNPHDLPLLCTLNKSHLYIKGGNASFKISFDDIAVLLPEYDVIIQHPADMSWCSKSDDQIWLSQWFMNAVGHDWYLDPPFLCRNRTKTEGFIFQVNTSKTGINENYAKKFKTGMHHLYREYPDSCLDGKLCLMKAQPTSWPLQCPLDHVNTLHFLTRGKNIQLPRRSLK
Sequence of JUNV GPC (P26313 252-485 limits assumed): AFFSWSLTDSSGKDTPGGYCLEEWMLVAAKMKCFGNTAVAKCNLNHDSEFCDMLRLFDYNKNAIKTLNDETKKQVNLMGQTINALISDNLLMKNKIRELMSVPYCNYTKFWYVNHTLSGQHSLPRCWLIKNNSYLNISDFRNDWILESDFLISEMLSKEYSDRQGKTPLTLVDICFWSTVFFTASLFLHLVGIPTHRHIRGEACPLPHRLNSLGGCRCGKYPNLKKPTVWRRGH

[20] = system: icd-GPC; format: binding, Junin virus; remark: listed apart in the source

Compound	EC50 [1]	EC50 [2]	EC50 [3]	EC50 [4]	further results
CCC(NC(=O)NNS(=O)(=O)c1ccc2c(c1)OCCN2C)(C(F)(F)F)C(F)(F)F [Compound 112, 1-[1,1-bis(trifluoromethyl)propyl]-3-[(4-methyl-2,3-dihydro-1,4-benzoxazin-7-yl)sulfonylamino] urea]	> 30 µM	< 1 µM	< 1 µM	< 10 µM	
CCC(NC(=O)NNS(=O)(=O)c1ccccc1-c1ccccc1)(C(F)(F)F)C(F)(F)F [Compound 105, 1-[1,1-bis(trifluoromethyl)propyl]-3-[(2-phenylphenyl)sulfonylamino] urea]	> 30 µM	< 1 µM	< 1 µM	< 1 µM	
CCC(NC(=O)NNS(=O)(=O)c1ccc2ccccc2c1)(C(F)(F)F)C(F)(F)F [Compound 102, 1-[1,1-bis(trifluoromethyl)propyl]-3-(2-naphthylsulfonylamino)urea]	> 20 µM	< 1 µM	< 1 µM	< 1 µM	
CCC(NC(=O)NNS(=O)(=O)c1ccc(-c2csnn2)cc1)(C(F)(F)F)C(F)(F)F [Compound 114, 1-[1,1-bis(trifluoromethyl)propyl]-3-[[4-(thiadiazol-4-yl)phenyl]sulfonylamino]urea]	> 30 µM	< 1 µM	< 1 µM	< 1 µM	EC50 [5]: < 1 µM
CC(NC(=O)Nc1ccccc1C(F)(F)F)(C(F)(F)F)C(F)(F)F [Example 97, 1-(2-Trifluoromethylphenyl)-3-(2,2,2-trifluoro-1-methyl-1-trifluoromethylethyl)-urea]					EC50 ([6]; Mammarenavirus tacaribeense, Vero, read-out: Tacaribe EC50): > 5 µM
CCC(NC(=O)NNS(=O)(=O)c1ccc(C(C)C)cc1)(C(F)(F)F)C(F)(F)F [Compound 103, 1-[1,1-bis(trifluoromethyl)propyl]-3-[(4-isopropylphenyl)sulfonylamino] urea]	> 20 µM	< 1 µM	< 1 µM	< 1 µM	
N-2-(1,1,1,3,3,3-hexafluoro-1-methylpropyl)-2-[(4-difluoromethoxyphenyl)sulfonyl]hydrazine-1-carboxamide [ST-294]					EC50 [7]: 0.1 µM; Genotoxicity (Ames test) [8]: negative; susceptibility of ST-336 drug resistant Tacaribe variants [9]: all of the mutants elicited cross-resistance; Tacaribe virus CPE EC50 [6]: 0.066 mg/L; EC50 ([6]; read-out: Tacaribe (CPE) EC50): 0.12 µM; CC50 [10]: > 50 µM; efficacy (survival) in Tacaribe infected newborn mice [11]: both survival and a delay in death similar to the drug control; also recorded: significant protection against Tacaribe virus induced disease; EC50 [12]: 0.3 µM; EC50 [13]: 1 µM; PK (rat/oral) ½ life [14]: 2 h; Cmax (serum levels) ([14]; rat, po): 6.67 µg/mL; EC50 [15]: 0.3 µM; displacement of bound ST-375 from icd-GPC [16]: displaced from icd-GPC in a time- and concentration-dependent manner; PK (newborn mouse/IP) Cmax [17]: 2.91 µg/mL; PK (newborn mouse/IP) ½ life [17]: 3 h; tolerability [18]: well tolerated
CCC(NC(=O)NNS(=O)(=O)c1cccc2c(N(C)C)cccc12)(C(F)(F)F)C(F)(F)F [Compound 110, 1-[1,1-bis(trifluoromethyl)propyl]-3-[[5-(dimethylamino)-1-naphthyl]sulfonylamino]urea]	> 30 µM	< 1 µM	< 1 µM	< 10 µM	EC50 [19]: 0.6 µM; EC50 [5]: < 1 µM; dansyl fluorescence at 525 nm on binding to solubilized icd-GPC [20]: increase in a time-dependent manner
CCC(NC(=O)NNS(=O)(=O)c1cc(Br)ccc1OC)(C(F)(F)F)C(F)(F)F [Compound 115, 1-[1,1-bis(trifluoromethyl)propyl]-3-[(5-bromo-2-methoxy-phenyl)sulfonylamino]urea]	> 30 µM	< 1 µM	< 1 µM	< 1 µM	
COc1ccc(-n2cnc3cc(NCc4ccc(C(C)C)cc4)ccc32)cc1 [ST-193, reference compound]					displacement of bound ST-375 from icd-GPC [16]: displaced from icd-GPC in a time- and concentration-dependent manner
CCC(NC(=O)NNS(=O)(=O)c1cc(OC)ccc1OC)(C(F)(F)F)C(F)(F)F [Compound 101, 1-[1,1-bis(trifluoromethyl)propyl]-3-[(2,5-dimethoxyphenyl)sulfonylamino] urea]	> 30 µM	< 1 µM	< 1 µM	< 1 µM	
CCC(NC(=O)NNS(=O)(=O)c1cc(C)cc(C)c1)(C(F)(F)F)C(F)(F)F [Compound 109, 1-[1,1-bis(trifluoromethyl)propyl]-3-[(3,5-dimethylphenyl)sulfonylamino] urea]	> 30 µM	< 1 µM	< 10 µM	< 10 µM	
CCC(NC(=O)NNS(=O)(=O)c1ccc(C(C)(C)C)cc1)(C(F)(F)F)C(F)(F)F [Compound 100, 1-[1,1-bis(trifluoromethyl)propyl]-3-[(4-tert-butylphenyl)sulfonylamino]urea]	19.7 µM	< 1 µM	< 1 µM	< 1 µM	
CCC(NC(=O)NNS(=O)(=O)c1c(C)cc(C)cc1C)(C(F)(F)F)C(F)(F)F [Compound 99, 1-[1,1-bis(trifluoromethyl)propyl]-3-[(2,4,6-trimethylphenyl)sulfonylamino] urea]	> 30 µM	< 1 µM	< 1 µM	< 1 µM	
CCC(NC(=O)NNS(=O)(=O)c1ccc(OC(F)F)cc1)(C(F)(F)F)C(F)(F)F [Compound 108, 1-[1,1-bis(trifluoromethyl)propyl]-3-[[4-(difluoromethoxy)phenyl]sulfonyl-amino]urea]					EC50 ([6]; Mammarenavirus tacaribeense, Vero, read-out: Tacaribe (result of cytopathic effect assay)): < 1 µM
CCC(NC(=O)NNS(=O)(=O)c1cc(OCC(F)(F)F)ccc1OCC(F)(F)F)(C(F)(F)F)C(F)(F)F [Compound 113, 1-[[2,5-bis(2,2,2-trifluoroethoxy)phenyl]sulfonyl-amino]-3-[1,1-bis(trifluoromethyl)propyl]urea]	21 µM	< 1 µM	< 1 µM	< 1 µM	
CCC(NC(=O)NNS(=O)(=O)c1cc(Cl)ccc1OC)(C(F)(F)F)C(F)(F)F [Compound 104, 1-[1,1-bis(trifluoromethyl)propyl]-3-[(5-chloro-2-methoxy-phenyl)sulfonylamino]urea]	> 30 µM	< 1 µM	< 1 µM	< 1 µM	
CCC(NC(=O)NNS(=O)(=O)c1cccc2ccccc12)(C(F)(F)F)C(F)(F)F [Compound 111, 1-[1,1-bis(trifluoromethyl)propyl]-3-(1-naphthylsulfonylamino)urea]	> 30 µM	< 1 µM	< 1 µM	< 1 µM	
CCC(NC(=O)NNS(=O)(=O)c1ccc(-c2ccccc2)cc1)(C(F)(F)F)C(F)(F)F [Compound 116, 1-[1,1-bis(trifluoromethyl)propyl]-3-[(4-phenylphenyl)sulfonylamino] urea]	> 20 µM	< 1 µM	< 1 µM	< 10 µM	
CCC(NC(=O)NNS(=O)(=O)c1ccc(Br)cc1)(C(F)(F)F)C(F)(F)F [Compound 107, 1-[1,1-bis(trifluoromethyl)propyl]-3-[(4-bromophenyl)sulfonylamino] urea]	> 30 µM	< 1 µM	< 1 µM	< 1 µM	
CCC(NC(=O)NNS(=O)(=O)c1ccc(Cl)c(Cl)c1)(C(F)(F)F)C(F)(F)F [Compound 106, 1-[1,1-bis(trifluoromethyl)propyl]-3-[(3,4-dichlorophenyl)sulfonylamino]urea]	> 30 µM	< 1 µM	< 1 µM	< 1 µM	
